Data reported in the CheMixHub ionic liquid set.

Assay: xn = mol fraction of the nth substance listed
Settings: 100 kPa

CCCCCCCC[n+]1ccccc1.[Br-] + CC(C)[C@H](NC(=O)CN)C(=O)O + O
Settings	electrical conductivity [S/m]
288.15 K, x2 = 0.0008946, x1 = 0.00616	1.33
288.15 K, x2 = 0.0008949, x1 = 0.005884	1.29
288.15 K, x2 = 0.0008952, x1 = 0.005575	1.25
288.15 K, x2 = 0.0008955, x1 = 0.005248	1.21
288.15 K, x2 = 0.0008958, x1 = 0.004887	1.17
288.15 K, x2 = 0.0008961, x1 = 0.004507	1.12
288.15 K, x2 = 0.0008965, x1 = 0.004077	1.05
288.15 K, x2 = 0.0008969, x1 = 0.003608	0.964
288.15 K, x2 = 0.0008974, x1 = 0.003092	0.861
288.15 K, x2 = 0.0008979, x1 = 0.002527	0.74
288.15 K, x2 = 0.0008985, x1 = 0.001896	0.592
288.15 K, x2 = 0.0008988, x1 = 0.001509	0.493
288.15 K, x2 = 0.0008992, x1 = 0.001132	0.388
288.15 K, x2 = 0.0008995, x1 = 0.0007259	0.276
288.15 K, x2 = 0.001788, x1 = 0.005723	1.23
288.15 K, x2 = 0.001788, x1 = 0.005981	1.26
288.15 K, x2 = 0.001789, x1 = 0.005422	1.19
288.15 K, x2 = 0.00179, x1 = 0.004738	1.11
288.15 K, x2 = 0.00179, x1 = 0.005091	1.15
288.15 K, x2 = 0.001791, x1 = 0.004351	1.06
288.15 K, x2 = 0.001792, x1 = 0.003932	0.991
288.15 K, x2 = 0.001793, x1 = 0.002974	0.81
288.15 K, x2 = 0.001793, x1 = 0.003476	0.909
288.15 K, x2 = 0.001794, x1 = 0.002419	0.692
288.15 K, x2 = 0.001796, x1 = 0.001458	0.463
288.15 K, x2 = 0.001796, x1 = 0.001805	0.55
288.15 K, x2 = 0.001797, x1 = 0.0007114	0.261
288.15 K, x2 = 0.001797, x1 = 0.001099	0.365
293.15 K, x2 = 0.0008946, x1 = 0.006158	1.51
293.15 K, x2 = 0.0008949, x1 = 0.005882	1.47
293.15 K, x2 = 0.0008952, x1 = 0.005573	1.42
293.15 K, x2 = 0.0008955, x1 = 0.005248	1.38
293.15 K, x2 = 0.0008958, x1 = 0.004887	1.32
293.15 K, x2 = 0.0008961, x1 = 0.004505	1.27
293.15 K, x2 = 0.0008965, x1 = 0.004077	1.19
293.15 K, x2 = 0.0008969, x1 = 0.003608	1.1
293.15 K, x2 = 0.0008974, x1 = 0.003092	0.974
293.15 K, x2 = 0.0008979, x1 = 0.002527	0.84
293.15 K, x2 = 0.0008985, x1 = 0.001896	0.67
293.15 K, x2 = 0.0008988, x1 = 0.001509	0.557
293.15 K, x2 = 0.0008992, x1 = 0.001132	0.437
293.15 K, x2 = 0.0008995, x1 = 0.0007259	0.309
293.15 K, x2 = 0.001788, x1 = 0.005721	1.4
293.15 K, x2 = 0.001788, x1 = 0.005981	1.44
293.15 K, x2 = 0.001789, x1 = 0.00542	1.36
293.15 K, x2 = 0.00179, x1 = 0.004736	1.26
293.15 K, x2 = 0.00179, x1 = 0.005091	1.31
293.15 K, x2 = 0.001791, x1 = 0.004351	1.2
293.15 K, x2 = 0.001792, x1 = 0.003932	1.12
293.15 K, x2 = 0.001793, x1 = 0.002972	0.917
293.15 K, x2 = 0.001793, x1 = 0.003476	1.03
293.15 K, x2 = 0.001794, x1 = 0.002419	0.785
293.15 K, x2 = 0.001796, x1 = 0.001458	0.521
293.15 K, x2 = 0.001796, x1 = 0.001805	0.621
293.15 K, x2 = 0.001797, x1 = 0.0007114	0.293
293.15 K, x2 = 0.001797, x1 = 0.001099	0.411
298.15 K, x2 = 0.0008946, x1 = 0.006158	1.7
298.15 K, x2 = 0.0008949, x1 = 0.00588	1.65
298.15 K, x2 = 0.0008952, x1 = 0.005573	1.6
298.15 K, x2 = 0.0008955, x1 = 0.005246	1.55
298.15 K, x2 = 0.0008958, x1 = 0.004885	1.49
298.15 K, x2 = 0.0008961, x1 = 0.004505	1.43
298.15 K, x2 = 0.0008965, x1 = 0.004077	1.34
298.15 K, x2 = 0.0008969, x1 = 0.003608	1.23
298.15 K, x2 = 0.0008974, x1 = 0.003092	1.1
298.15 K, x2 = 0.0008979, x1 = 0.002527	0.942
298.15 K, x2 = 0.0008985, x1 = 0.001896	0.751
298.15 K, x2 = 0.0008988, x1 = 0.001509	0.623
298.15 K, x2 = 0.0008992, x1 = 0.001132	0.489
298.15 K, x2 = 0.0008995, x1 = 0.0007259	0.343
298.15 K, x2 = 0.001788, x1 = 0.005721	1.59
298.15 K, x2 = 0.001788, x1 = 0.00598	1.64
298.15 K, x2 = 0.001789, x1 = 0.00542	1.54
298.15 K, x2 = 0.00179, x1 = 0.004736	1.42
298.15 K, x2 = 0.00179, x1 = 0.005091	1.49
298.15 K, x2 = 0.001791, x1 = 0.004349	1.35
298.15 K, x2 = 0.001792, x1 = 0.003932	1.27
298.15 K, x2 = 0.001793, x1 = 0.002972	1.03
298.15 K, x2 = 0.001793, x1 = 0.003476	1.17
298.15 K, x2 = 0.001794, x1 = 0.002419	0.883
298.15 K, x2 = 0.001796, x1 = 0.001458	0.586
298.15 K, x2 = 0.001796, x1 = 0.001805	0.699
298.15 K, x2 = 0.001797, x1 = 0.0007114	0.326
298.15 K, x2 = 0.001797, x1 = 0.001099	0.462
303.15 K, x2 = 0.0008946, x1 = 0.006155	1.91
303.15 K, x2 = 0.0008949, x1 = 0.005878	1.86
303.15 K, x2 = 0.0008952, x1 = 0.005571	1.8
303.15 K, x2 = 0.0008955, x1 = 0.005244	1.74
303.15 K, x2 = 0.0008958, x1 = 0.004883	1.67
303.15 K, x2 = 0.0008961, x1 = 0.004503	1.6
303.15 K, x2 = 0.0008965, x1 = 0.004075	1.49
303.15 K, x2 = 0.0008969, x1 = 0.003606	1.38
303.15 K, x2 = 0.0008974, x1 = 0.003092	1.22
303.15 K, x2 = 0.0008979, x1 = 0.002527	1.05
303.15 K, x2 = 0.0008985, x1 = 0.001896	0.834
303.15 K, x2 = 0.0008988, x1 = 0.001509	0.689
303.15 K, x2 = 0.0008992, x1 = 0.001132	0.543
303.15 K, x2 = 0.0008995, x1 = 0.0007259	0.385
303.15 K, x2 = 0.001788, x1 = 0.005719	1.79
303.15 K, x2 = 0.001788, x1 = 0.005978	1.84
303.15 K, x2 = 0.001789, x1 = 0.005417	1.73
303.15 K, x2 = 0.00179, x1 = 0.004734	1.6
303.15 K, x2 = 0.00179, x1 = 0.005087	1.67
303.15 K, x2 = 0.001791, x1 = 0.004349	1.52
303.15 K, x2 = 0.001792, x1 = 0.00393	1.42
303.15 K, x2 = 0.001793, x1 = 0.002972	1.16
303.15 K, x2 = 0.001793, x1 = 0.003474	1.3
303.15 K, x2 = 0.001794, x1 = 0.002419	0.983
303.15 K, x2 = 0.001796, x1 = 0.001458	0.652
303.15 K, x2 = 0.001796, x1 = 0.001805	0.778
303.15 K, x2 = 0.001797, x1 = 0.0007114	0.361
303.15 K, x2 = 0.001797, x1 = 0.001099	0.512
308.15 K, x2 = 0.0008946, x1 = 0.006153	2.17
308.15 K, x2 = 0.0008949, x1 = 0.005877	2.11
308.15 K, x2 = 0.0008952, x1 = 0.00557	2.04
308.15 K, x2 = 0.0008955, x1 = 0.005243	1.95
308.15 K, x2 = 0.0008958, x1 = 0.004881	1.86
308.15 K, x2 = 0.0008961, x1 = 0.004503	1.77
308.15 K, x2 = 0.0008965, x1 = 0.004075	1.66
308.15 K, x2 = 0.0008969, x1 = 0.003606	1.52
308.15 K, x2 = 0.0008974, x1 = 0.003092	1.35
308.15 K, x2 = 0.0008979, x1 = 0.002525	1.15
308.15 K, x2 = 0.0008985, x1 = 0.001896	0.905
308.15 K, x2 = 0.0008988, x1 = 0.001509	0.753
308.15 K, x2 = 0.0008992, x1 = 0.001132	0.6
308.15 K, x2 = 0.0008995, x1 = 0.0007259	0.446
308.15 K, x2 = 0.001788, x1 = 0.005717	2
308.15 K, x2 = 0.001788, x1 = 0.005974	2.06
308.15 K, x2 = 0.001789, x1 = 0.005415	1.94
308.15 K, x2 = 0.00179, x1 = 0.004732	1.78
308.15 K, x2 = 0.00179, x1 = 0.005087	1.86
308.15 K, x2 = 0.001791, x1 = 0.004348	1.68
308.15 K, x2 = 0.001792, x1 = 0.00393	1.58
308.15 K, x2 = 0.001793, x1 = 0.002972	1.28
308.15 K, x2 = 0.001793, x1 = 0.003474	1.44
308.15 K, x2 = 0.001794, x1 = 0.002419	1.09
308.15 K, x2 = 0.001796, x1 = 0.001456	0.714
308.15 K, x2 = 0.001796, x1 = 0.001805	0.853
308.15 K, x2 = 0.001797, x1 = 0.0007114	0.409
308.15 K, x2 = 0.001797, x1 = 0.001099	0.567
